Test results published in patent US20190335746A1, “ANTIMICROBIAL GAS RELEASING AGENTS AND SYSTEMS AND METHODS FOR USING THE SAME” (priority 2016, published 2019).

Experiment: Spiking the product matrices with ClO2 gas
Conditions: product matrices spiked with ClO2 gas
Description: Headspace samples underwent a colorimetric analysis for ClO2 gas.

## [O][Cl+][O-] [ClO2 gas, chlorine dioxide]
  chlorine dioxide in the residual juice and tomato samples after spiking: no detectable chlorine dioxide
